Measurements taken from patent US4696937A, “Thiosulfonate derivatives for inhibiting malformation or destruction of red blood corpuscules” (Sanofi, priority 1984, dated 1987).

Columns and labels:
sickling = settings: literature: Inserm Symposium 1979; in words; cited from earlier work
[1] = tested on: red cells of subjects suffering from drepanocytosis; assay: Inhibition of sickling of human red blood corpuscules of subjects suffering from drepanocytosis; type: cell-based; settings: pH 7.40, one hour at 37° C.
Experimental: Inhibition of the sickling of human red blood corpuscules was assessed by washing and incubating, in a saline buffer (pH: 7.40; 0.15M) for one hour at 37° C., the red cells of subjects suffering from drepanocytosis. This operation was carried out in a water-bath under stirring and in the presence of a compound of the invention used at different concentrations. The molar ratios between the compound of the invention and the haemoglobin were initially tested at intervals ranging from 0.5 to 20, the mM concentration in haemoglobin being 0.5 in each case and the ratio being modified according to the results obtained.
At the end of incubation, the excess of the product being tested was removed by washing and the cellular suspension adjusted so as to form a haematocrit of 5% was transferred to an Erlenmeyer flask and incubated at 37° C. under a current comprising a humidified mixture of nitrogen and oxygen the oxygen concentration being regulated by a gas-mixing pump. The effluent gas was then transferred to another tube containing formaldehyde and, at the end of incubation, the cellular suspension was transferred to the formaldehyde by merely turning the flask upside down.
The proportion of deformed cells and those having the characteristics of drepanocytes (having two filiform extensions) was assessed with the aid of a microscope having a NORMARSKY interferential optical system. Inhibition of sickling was calculated according to the following formula: [formula]
The following results were obtained with representative compounds of the present invention in comparison with cystamine.

NCCSSCCN [Cystamine, cystamine, reference compound]
inhibiting sickling (sickling): particularly active
% inhibition of sickling of the red blood corpuscles ([1]; 5 mmolar): 33%

Cc1ccc(S(=O)(=O)Sc2ncc[nH]2)cc1 [1H-imidazol-2-yl p-toluenethiosulfonate]
% inhibition of sickling of the red blood corpuscles ([1]; 0.5 mmolar): 50%
% inhibition of sickling of the red blood corpuscles ([1]; 1 mmolar): 100%

Cc1ccc(S(=O)(=O)Sc2nnc(N)s2)cc1 [5-amino-1,3,4-thiadiazol-2-yl p-toluenethiosulfonate]
% inhibition of sickling of the red blood corpuscles ([1]; 1 mmolar): 33%
